Reference: PubChem BioAssay AID330 (DTP/NCI, 2004)
Where “and” joins values, the source holds several entries; their conditions need not be identical. Identical values can stand only once. Inconclusive results and toxic doses are left out. Rule for the calls: active = survival T/C of 150% or more; inactive = T/C below 125% in these data. Square brackets hold non-standard residues; d marks the D form. Peptide text beside a SMILES is read from it. * marks the point of attachment. ξ: configuration not given here. Cbz = O=C(OCc1ccccc1)*; Bn = c1ccc(C*)cc1; ξC = NC(CS)C(=O)O

System: P388 leukemia ip, CD2F1 mice, survival T/C
Assay: NCI In Vivo Anticancer Drug Screen. Data for tumor model P388 Leukemia (intraperitoneal) in CD2F1 (CDF1) mice
Conditions: endpoint: median survival time, higher = longer survival
Outline: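 Mice carrying the transplanted tumor received test compound or vehicle. Survival was recorded in each group, and the value is the treated-group measurement divided by that of the vehicle-treated control group.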

[1] = dose: 100.0 mg/kg/injection, schedule: Q01DX009 (ip), vehicle: saline with Tween-80
[2] = dose: 200.0 mg/kg/injection, schedule: Q01DX009 (ip), vehicle: saline with Tween-80
[3] = dose: 50.0 mg/kg/injection, schedule: Q01DX005 (ip), vehicle: saline with Tween-80
[4] = dose: 100.0 mg/kg/injection, schedule: Q01DX005 (ip), vehicle: saline with Tween-80
[5] = dose: 200.0 mg/kg/injection, schedule: Q01DX005 (ip), vehicle: saline with Tween-80
[6] = dose: 25.0 mg/kg/injection, schedule: Q01DX009 (ip), vehicle: saline with Tween-80
[7] = dose: 50.0 mg/kg/injection, schedule: Q01DX009 (ip), vehicle: saline with Tween-80
[8] = dose: 6.25 mg/kg/injection, schedule: Q01DX009 (ip), vehicle: saline
[9] = dose: 60.0 mg/kg/injection, schedule: Q01DX005 (ip), vehicle: saline with Tween-80
[10] = dose: 120.0 mg/kg/injection, schedule: Q01DX005 (ip), vehicle: saline with Tween-80
[11] = dose: 240.0 mg/kg/injection, schedule: Q01DX005 (ip), vehicle: saline with Tween-80
[12] = dose: 50.0 mg/kg/injection, schedule: Q01DX005 (ip), vehicle: Klucel (hydroxypropylcellulose) (HPC)
[13] = dose: 12.5 mg/kg/injection, schedule: Q01DX005 (ip), vehicle: saline with Tween-80

Measured: T/C

CCOc1ccc(Br)cc1/C=N\N=C\c1cc(Br)ccc1OCC
inactive: [1] 90 % of control | dose: 100.0 mg/kg/injection, schedule: Q04DX003 (ip), vehicle: saline with Tween-80 95 % of control | [2] 100 % of control | dose: 200.0 mg/kg/injection, schedule: Q04DX003 (ip), vehicle: saline with Tween-80 95 % of control | dose: 400.0 mg/kg/injection, schedule: Q01DX009 (ip), vehicle: saline with Tween-80 100 % of control | dose: 400.0 mg/kg/injection, schedule: Q04DX003 (ip), vehicle: saline with Tween-80 100 % of control

CCOC(=O)c1nc2ccccc2c(=O)n1NC(=S)Nc1ccc(Cl)cc1
inactive: [3] 93 % of control | [4] 93 % of control | [5] 105 % of control

c1cc2[nH]c3ccncc3c2cn1
inactive: [6] 102 % of control | [7] 105 % of control

O=C1OCC2OC(=O)c3cc(O)c(O)c(O)c3-c3c(O)c(O)c(O)c4c3C(=O)OC(C2OC(=O)c2cc(O)c(O)c(O)c2-c2c1cc(O)c(O)c2O)C1OC(=O)c2c-4c(O)c(O)c(O)c2C1O (stereo not given)
inactive: dose: 1.56 mg/kg/injection, schedule: Q01DX009 (ip), vehicle: saline 101 % of control | dose: 3.12 mg/kg/injection, schedule: Q01DX009 (ip), vehicle: saline 100 % of control | [8] 99 % of control and 88 % of control and 100 % of control | dose: 12.5 mg/kg/injection, schedule: Q01DX009 (ip), vehicle: saline 100 % of control

CNCCCCc1cc(-c2ccc([N+](=O)[O-])cc2)n[nH]1
inactive: dose: 100.0 mg/kg/injection, schedule: Q04DX003 (ip), vehicle: Klucel (hydroxypropylcellulose) (HPC) 105 % of control

Cc1cc(O)c(C(=O)/C=C(\O)c2ccccc2)c(=O)o1
inactive: dose: 10.5 mg/kg/injection, schedule: Q01DX005 (ip), vehicle: Klucel (hydroxypropylcellulose) (HPC) 100 % of control | dose: 21.0 mg/kg/injection, schedule: Q01DX005 (ip), vehicle: Klucel (hydroxypropylcellulose) (HPC) 102 % of control | dose: 42.0 mg/kg/injection, schedule: Q01DX005 (ip), vehicle: Klucel (hydroxypropylcellulose) (HPC) 106 % of control | dose: 84.0 mg/kg/injection, schedule: Q01DX005 (ip), vehicle: Klucel (hydroxypropylcellulose) (HPC) 86 % of control

CCCCCCCCC1CCC(=O)NC1=O (stereo not given)
inactive: [9] 112 % of control | [10] 104 % of control | [11] 93 % of control

CCCCCCN(CCCCCC)C(C)C(=O)c1ccc2cc(Br)c3ccccc3c2c1 (stereo not given)
inactive: [3] 91 % of control | [4] 94 % of control | [5] 94 % of control

OC(CCCCOc1ccccc1)(c1ccccc1)c1ccccc1
inactive: [9] 100 % of control | [10] 101 % of control | [11] 101 % of control

O=[N+]([O-])c1ccc(S(=O)(=O)NCCSSCCNS(=O)(=O)c2ccc([N+](=O)[O-])cc2)cc1
inactive: dose: 50.0 mg/kg/injection, schedule: Q01DX009 (ip), vehicle: Klucel (hydroxypropylcellulose) (HPC) 90 % of control | dose: 100.0 mg/kg/injection, schedule: Q01DX009 (ip), vehicle: Klucel (hydroxypropylcellulose) (HPC) 93 % of control | dose: 200.0 mg/kg/injection, schedule: Q01DX009 (ip), vehicle: Klucel (hydroxypropylcellulose) (HPC) 90 % of control

CCCCCC(O)(CCCCC)CCCCC
inactive: dose: 60.0 mg/kg/injection, schedule: Q01DX005 (ip), vehicle: saline 101 % of control | dose: 120.0 mg/kg/injection, schedule: Q01DX005 (ip), vehicle: saline 101 % of control | dose: 240.0 mg/kg/injection, schedule: Q01DX005 (ip), vehicle: saline 92 % of control

Nc1ncnn1Cc1ccccc1
inactive: [6] 104 % of control | [7] 100 % of control | [1] 101 % of control | [2] 102 % of control

O=C(OCCN1C(=O)C2C3C=CC(C3)C2C1=O)C1C2C=CC(C2)C1C(=O)OCCN1C(=O)C2C3C=CC(C3)C2C1=O (stereo not given)
inactive: dose: 50.0 mg/kg/injection, schedule: Q01DX005 (ip), vehicle: saline + Tween-80 + alcohol 100 % of control | dose: 100.0 mg/kg/injection, schedule: Q01DX005 (ip), vehicle: saline + Tween-80 + alcohol 105 % of control | dose: 200.0 mg/kg/injection, schedule: Q01DX005 (ip), vehicle: saline + Tween-80 + alcohol 105 % of control

CN(C)CCSc1c2ccccc2nc2ccccc12
inactive: dose: 12.5 mg/kg/injection, schedule: Q01DX005 (ip), vehicle: Klucel (hydroxypropylcellulose) (HPC) 110 % of control | dose: 25.0 mg/kg/injection, schedule: Q01DX005 (ip), vehicle: Klucel (hydroxypropylcellulose) (HPC) 110 % of control and 119 % of control | [12] 100 % of control (2×) and 101 % of control

CCC/C(=N\NC(N)=NC)c1ccc2c(c1)Cc1cc(/C(CCC)=N/NC(N)=NC)ccc1-2
inactive: dose: 3.12 mg/kg/injection, schedule: Q04DX002 (ip), vehicle: saline with Tween-80 96 % of control | dose: 6.25 mg/kg/injection, schedule: Q04DX002 (ip), vehicle: saline with Tween-80 100 % of control

CC(=O)c1c(OCC(O)CN(CCO)CCO)ccc2c(C)cc(=O)oc12 (stereo not given)
inactive: [3] 107 % of control | [4] 104 % of control | [5] 108 % of control

COc1cc(O)c2c(c1O)C1(C)C(=O)CCCC1(O)CC2=O (stereo not given)
inactive: dose: 100.0 mg/kg/injection, schedule: Q01DX001 (ip), vehicle: saline with Tween-80 90 % of control | dose: 200.0 mg/kg/injection, schedule: Q01DX001 (ip), vehicle: saline with Tween-80 100 % of control | dose: 400.0 mg/kg/injection, schedule: Q01DX001 (ip), vehicle: saline with Tween-80 100 % of control

CCNc1nc(N)nc(N)n1
inactive: dose: 50.0 mg/kg/injection, schedule: Q01DX009 (ip), vehicle: saline 102 % of control and 103 % of control and 104 % of control | dose: 50.0 mg/kg/injection, schedule: Q04DX002 (ip), vehicle: saline 107 % of control | dose: 100.0 mg/kg/injection, schedule: Q01DX009 (ip), vehicle: saline 100 % of control and 102 % of control and 112 % of control | dose: 100.0 mg/kg/injection, schedule: Q04DX002 (ip), vehicle: saline 98 % of control | dose: 200.0 mg/kg/injection, schedule: Q01DX009 (ip), vehicle: saline 100 % of control and 110 % of control and 120 % of control | dose: 200.0 mg/kg/injection, schedule: Q04DX002 (ip), vehicle: saline 98 % of control | dose: 400.0 mg/kg/injection, schedule: Q01DX009 (ip), vehicle: saline 102 % of control and 110 % of control

O=C(CNC(=O)OCc1ccccc1)NCC(=O)NC(CSCc1ccccc1)C(=O)O (stereo not drawn) (Cbz-Gly-Gly-[ξC](Bn)-OH)
inactive: [12] 101 % of control | dose: 100.0 mg/kg/injection, schedule: Q01DX005 (ip), vehicle: Klucel (hydroxypropylcellulose) (HPC) 100 % of control | dose: 200.0 mg/kg/injection, schedule: Q01DX005 (ip), vehicle: Klucel (hydroxypropylcellulose) (HPC) 100 % of control

CC(C)([NH-])CO.CC(C)([NH-])CO.[Cl][Cd][Cl]
inactive: dose: 3.13 mg/kg/injection, schedule: Q01DX009 (ip), vehicle: saline 91 % of control | [8] 91 % of control

O=C1NCCCCCC1S(=O)c1ccccc1 (stereo not given)
inactive: [3] 103 % of control | [4] 96 % of control | [5] 101 % of control

CC(N)(CCSCP(=O)(O)O)C(=O)O (stereo not given)
inactive: [9] 99 % of control | [10] 91 % of control

C=CCC(C(C)=O)C(C)=NCCN=C(C)C(CC=C)C(C)=O.[Cu] (stereo not given)
inactive: dose: 6.25 mg/kg/injection, schedule: Q01DX005 (ip), vehicle: saline with Tween-80 110 % of control | [13] 96 % of control

CCCc1cc(-c2cccc3ccccc23)c(CCC)c2c1-c1cccc3cccc-2c13
inactive: [7] 97 % of control | [1] 96 % of control

CN(C)CCCNc1nc(NCCCN(C)C)c2nc(-c3ccccc3)c(-c3ccccc3)nc2n1
inactive: [13] 97 % of control | dose: 25.0 mg/kg/injection, schedule: Q01DX005 (ip), vehicle: saline with Tween-80 88 % of control | [3] 88 % of control

Nc1nc(-c2ccc([N+](=O)[O-])cc2)cc(-c2cc(-c3ccc([N+](=O)[O-])cc3)nc(N)n2)n1
inactive: dose: 60.0 mg/kg/injection, schedule: Q01DX005 (ip), vehicle: Klucel (hydroxypropylcellulose) (HPC) 87 % of control | dose: 120.0 mg/kg/injection, schedule: Q01DX005 (ip), vehicle: Klucel (hydroxypropylcellulose) (HPC) 89 % of control | dose: 240.0 mg/kg/injection, schedule: Q01DX005 (ip), vehicle: Klucel (hydroxypropylcellulose) (HPC) 94 % of control
